This passage reports Kd and IC50 results from patent US8633207B2, “Quinazoline compounds and methods of use thereof” (Ambit Biosciences Corporation, priority 2010, dated 2014).

One assay deals with T1, Tyk2 (Homo sapiens, UniProt P29597).
T1 construct: made in house; host or cells: T7 phage display, or HEK-293 cells (alternative)
As to the kind of experiment: Competition binding assay to determine Kd against JAK kinases: Tyk2. The source says:
(§1) Competition Binding Assay to Determine Binding Constants (Kd) of the Compounds Against JAK Kinases
(§2) Competition binding assays used herein were developed, validated and performed as described in Fabian et al., Nature Biotechnology 2005, 23, 329-336. Kinases were produced as fusions to T7 phage (See, Fabian et al. or WO04/015142) or alternatively, the kinases were expressed in HEK-293 cells and subsequently tagged with DNA for PCR detection (See, WO08/005,310). For the binding assays, streptavidin-coated magnetic beads were treated with biotinylated affinity ligands for 30 min at rt to generate affinity resins. The liganded beads were blocked with excess biotin and washed with blocking buffer (SeaBlock (Pierce), 1% BSA, 0.05% Tween 20, 1 mM DTT) to remove unbound ligand and to reduce non-specific binding. Binding reactions were assembled by combining kinase, liganded affinity beads, and test compounds in 1× binding buffer (20% SeaBlock, 0.17×PBS, 0.05% Tween 20, 6 mM DTT). Test compounds were prepared as 100× stocks in DMSO and rapidly diluted into the aqueous environment. DMSO was added to control assays lacking a test compound. Primary screen interactions were performed in polypropylene 384-well plates in a final volume of 34 μL, while Kd determinations were performed in polystyrene 96-well plates in a final volume of 135 μL. The assay plates were incubated at room temperature with shaking for 1 hour, long enough for binding reactions to reach equilibrium, and the affinity beads were washed extensively with wash buffer (1×PBS, 0.05% Tween 20) to remove unbound protein. The beads were then resuspended in elution buffer (1×PBS, 0.05% Tween 20, 2 μM non-biotinylated affinity ligand) and incubated at room temperature with shaking for 30 min. The kinase concentration in the eluates was measured by quantitative PCR. Each kinase was tested individually against each compound. Kds were determined using eleven serial threefold dilutions. A selectivity score, which is a quantitative measure of selectivity of a compound against a panel of enzymes, may be calculated for a compound by dividing the number of enzymes for which a compound meets a set criteria, (for example, a binding constant of 100 nM or less), by the total number of enzymes tested.

The next assay addresses T2, JAK2 (Homo sapiens, UniProt O60674).
T2 construct: made in house; host or cells: T7 phage display, or HEK-293 cells (alternative)
As to the kind of experiment: Competition binding assay to determine Kd against JAK kinases: JAK2.
Description: as §1, §2

The target of the next assay is T3, JAK3 (Homo sapiens, UniProt P52333).
T3 construct: made in house; host or cells: T7 phage display, or HEK-293 cells (alternative)
T3 sequence (P52333 1-1124): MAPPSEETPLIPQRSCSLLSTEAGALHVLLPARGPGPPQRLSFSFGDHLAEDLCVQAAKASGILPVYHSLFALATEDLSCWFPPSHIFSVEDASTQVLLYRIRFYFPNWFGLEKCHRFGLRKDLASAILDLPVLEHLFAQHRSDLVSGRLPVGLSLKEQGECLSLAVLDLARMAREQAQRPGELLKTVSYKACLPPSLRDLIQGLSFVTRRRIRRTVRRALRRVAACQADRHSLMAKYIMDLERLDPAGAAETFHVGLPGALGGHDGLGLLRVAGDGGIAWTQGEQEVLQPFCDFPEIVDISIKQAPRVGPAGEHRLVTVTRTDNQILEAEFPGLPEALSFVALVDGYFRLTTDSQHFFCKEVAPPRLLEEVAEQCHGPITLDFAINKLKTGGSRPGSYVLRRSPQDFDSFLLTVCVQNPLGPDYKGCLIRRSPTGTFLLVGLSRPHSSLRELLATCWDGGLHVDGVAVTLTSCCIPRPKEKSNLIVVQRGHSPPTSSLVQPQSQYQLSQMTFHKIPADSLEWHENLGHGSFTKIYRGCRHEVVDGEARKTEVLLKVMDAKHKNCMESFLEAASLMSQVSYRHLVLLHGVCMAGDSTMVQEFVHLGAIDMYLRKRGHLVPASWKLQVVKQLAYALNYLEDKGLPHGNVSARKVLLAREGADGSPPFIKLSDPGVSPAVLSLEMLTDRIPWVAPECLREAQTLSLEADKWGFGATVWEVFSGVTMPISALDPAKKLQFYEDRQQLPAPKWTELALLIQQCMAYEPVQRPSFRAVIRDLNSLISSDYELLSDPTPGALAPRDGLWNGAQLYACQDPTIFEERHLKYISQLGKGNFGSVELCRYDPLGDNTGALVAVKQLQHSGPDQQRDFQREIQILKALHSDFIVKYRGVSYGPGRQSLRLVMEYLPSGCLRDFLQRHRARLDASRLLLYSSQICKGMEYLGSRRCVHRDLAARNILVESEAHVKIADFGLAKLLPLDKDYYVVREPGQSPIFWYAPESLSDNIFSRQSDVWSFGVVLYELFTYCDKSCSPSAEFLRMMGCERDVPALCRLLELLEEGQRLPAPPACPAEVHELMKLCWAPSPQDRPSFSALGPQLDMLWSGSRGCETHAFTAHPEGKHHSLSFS
Kind of assay: Competition binding assay to determine Kd against JAK kinases: JAK3.
Description: as §1, §2

The subject of assay [1] is GM-CSFR/JAK2/STAT5 pathway. Kind of assay: csTF-1 cell-based reporter assay. To be noted: Homo sapiens; csTF-1 cells, GM-CSF at 2 ng/mL, 4 hours; read-out: Cell Assay: CS TF-1 reporter assay IC50. The method, then: csTF-1 Cell-Based Reporter Assay
csTF-1 cells are derived from the human erythroleukemia cell line that is growth dependent on GM-CSF and has an intact GM-CSFR/JAK2/STAT5 pathway. The cell line contains stably integrated beta-lactamase reporter gene under the control of the […] (irf 1) response element recognized by the activated transcription factor STATS. csTF-1 cells (Invitrogen K1219) were washed with assay media (97% OPTIMEM/0.5% dialyzed FBS/0.1 mM NEAA/1 mM Na pyr/P/S) and seeded in the same media at 5×10^5 cell/mL in T150 flask. After 16 hour incubation, cells were seeded at 2×10^5 cell/well in 50 μl volume, into Costar, clear bottom, 96-well assay plates. Serial dilutions of compounds were added to the plates with final DMSO concentration at 0.5% and GM-CSF at 2 ng/mL and the plates were then incubated at […] and 5% CO2 for 4 hours. The plates were brought to room temperature before adding Substrate Mixture according to manufacturer's protocol (Invitrogen, Catalog #K1085). The assay plates containing the substrate mixture were incubated in the dark at room temperature for 2 hours. Blue and green fluorescence was measured with excitation at 409 nm and emission at 460 nm (for blue) and excitation at 409 nm and emission at 530 nm (for green) using Spectra Max Gemini EM.
A general note: A reporter such as luciferase makes a cellular process visible.

T2 sequence (O60674 whole entry): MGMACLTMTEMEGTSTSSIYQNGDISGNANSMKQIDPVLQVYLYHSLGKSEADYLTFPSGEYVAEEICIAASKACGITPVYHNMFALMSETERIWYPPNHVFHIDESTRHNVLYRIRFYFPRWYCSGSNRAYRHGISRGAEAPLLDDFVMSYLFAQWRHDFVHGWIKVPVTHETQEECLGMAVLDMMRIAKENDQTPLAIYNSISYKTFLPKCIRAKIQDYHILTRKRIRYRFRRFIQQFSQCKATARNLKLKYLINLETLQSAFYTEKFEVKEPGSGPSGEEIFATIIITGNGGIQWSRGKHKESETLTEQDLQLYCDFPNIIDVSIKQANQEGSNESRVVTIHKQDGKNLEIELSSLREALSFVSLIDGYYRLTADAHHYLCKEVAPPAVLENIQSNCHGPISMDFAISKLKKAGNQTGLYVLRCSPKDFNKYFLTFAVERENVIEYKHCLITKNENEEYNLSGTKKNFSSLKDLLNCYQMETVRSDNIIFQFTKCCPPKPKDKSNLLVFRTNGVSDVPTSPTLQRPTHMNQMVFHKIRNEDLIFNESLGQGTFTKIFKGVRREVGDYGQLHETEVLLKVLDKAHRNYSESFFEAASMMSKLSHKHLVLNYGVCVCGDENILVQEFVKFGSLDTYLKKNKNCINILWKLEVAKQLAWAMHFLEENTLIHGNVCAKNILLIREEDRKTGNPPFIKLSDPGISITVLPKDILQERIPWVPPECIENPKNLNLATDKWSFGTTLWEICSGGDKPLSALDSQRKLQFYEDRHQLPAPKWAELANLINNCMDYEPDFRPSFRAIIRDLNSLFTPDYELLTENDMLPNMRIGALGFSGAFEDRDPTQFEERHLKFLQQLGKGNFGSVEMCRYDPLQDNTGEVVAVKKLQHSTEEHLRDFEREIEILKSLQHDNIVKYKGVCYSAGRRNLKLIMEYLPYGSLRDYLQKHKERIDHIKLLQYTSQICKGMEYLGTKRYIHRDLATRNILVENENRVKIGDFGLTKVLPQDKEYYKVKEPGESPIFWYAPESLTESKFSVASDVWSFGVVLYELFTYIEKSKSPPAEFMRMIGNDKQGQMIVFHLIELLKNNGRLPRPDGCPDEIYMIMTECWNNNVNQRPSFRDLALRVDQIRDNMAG
T1 sequence (P29597 whole entry): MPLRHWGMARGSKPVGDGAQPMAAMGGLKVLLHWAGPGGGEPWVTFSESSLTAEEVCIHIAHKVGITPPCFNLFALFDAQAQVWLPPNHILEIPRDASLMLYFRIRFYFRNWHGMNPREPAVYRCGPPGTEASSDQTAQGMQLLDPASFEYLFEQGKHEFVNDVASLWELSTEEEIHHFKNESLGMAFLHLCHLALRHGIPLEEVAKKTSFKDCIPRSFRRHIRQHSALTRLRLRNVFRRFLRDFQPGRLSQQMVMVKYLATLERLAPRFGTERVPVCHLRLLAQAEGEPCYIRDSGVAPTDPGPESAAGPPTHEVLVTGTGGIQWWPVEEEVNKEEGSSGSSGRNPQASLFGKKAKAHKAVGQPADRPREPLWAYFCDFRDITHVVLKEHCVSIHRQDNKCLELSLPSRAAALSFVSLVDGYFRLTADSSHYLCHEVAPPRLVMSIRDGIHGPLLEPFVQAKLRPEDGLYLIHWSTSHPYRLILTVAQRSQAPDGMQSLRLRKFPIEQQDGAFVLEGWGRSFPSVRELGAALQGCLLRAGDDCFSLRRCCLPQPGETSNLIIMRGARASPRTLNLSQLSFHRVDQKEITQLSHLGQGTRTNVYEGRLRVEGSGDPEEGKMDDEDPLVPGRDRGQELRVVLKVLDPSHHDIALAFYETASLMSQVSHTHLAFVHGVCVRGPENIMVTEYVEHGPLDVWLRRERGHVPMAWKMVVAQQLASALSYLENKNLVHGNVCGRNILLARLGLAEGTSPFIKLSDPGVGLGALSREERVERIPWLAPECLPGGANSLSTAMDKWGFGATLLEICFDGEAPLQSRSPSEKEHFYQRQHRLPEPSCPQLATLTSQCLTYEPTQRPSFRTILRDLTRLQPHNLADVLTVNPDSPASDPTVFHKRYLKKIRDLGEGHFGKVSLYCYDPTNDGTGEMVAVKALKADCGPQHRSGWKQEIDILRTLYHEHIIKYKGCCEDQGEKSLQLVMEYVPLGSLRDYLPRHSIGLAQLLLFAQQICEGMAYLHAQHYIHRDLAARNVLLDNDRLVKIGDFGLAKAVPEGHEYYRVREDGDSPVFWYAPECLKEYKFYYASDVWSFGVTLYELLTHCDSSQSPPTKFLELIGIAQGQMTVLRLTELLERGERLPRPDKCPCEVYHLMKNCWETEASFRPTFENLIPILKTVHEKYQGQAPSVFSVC

In general, Kd refers to the constant that tells how readily two partners part at equilibrium. Read a high Kd as a looser complex. For orientation: IC50 means the concentration that gives 50% inhibition. For the compound `Cc1cc(Nc2nc(C(F)(F)c3ccc(F)cn3)nc3c(NC=O)cccc23)n[nH]1` [Example 44, N-(2-(difluoro(5-fluoropyridin-2-yl)methyl)-4-((5-methyl-1H-pyrazol-3-yl)amino)quinazolin-8-yl)formamide], the results for the Kd on Tyk2, on JAK2 and at JAK3 were no more than 10 nM, no more than 1 nM and no more than 10 nM, respectively. Further, in assay [1], the half-maximal inhibitory concentration (IC50) was no more than 100 nM.

As to `Fc1ccc(C(F)(F)c2nc(Nc3nc[nH]n3)c3ccccc3n2)nc1` [Example 31, 2-(difluoro(5-fluoropyridin-2-yl)methyl)-N-(1H-1,2,4-triazol-3-yl)quinazolin-4-amine], the dissociation constant Kd was 10 to 100 nM on Tyk2, greater than 10 nM at JAK2 and greater than 100 nM at JAK3. Further, the half-inhibitory concentration (IC50) in assay [1] was greater than 500 nM.

As to `Cc1cc(Nc2nc(C(F)(F)c3ccc(F)cn3)nc3cc(S(C)(=O)=O)ccc23)n[nH]1` [Example 38, 2-(difluoro(5-fluoropyridin-2-yl)methyl)-N-(5-methyl-1H-pyrazol-3-yl)-7-(methylsulfonyl)quinazolin-4-amine], the equilibrium dissociation constant (Kd) on Tyk2 was no more than 10 nM; on JAK2, no more than 1 nM; at JAK3, no more than 10 nM. The IC50 in assay [1] is 100 to 500 nM.

As for `Cc1cc(Nc2nc(C(F)(F)c3ccc(F)cn3)nc3c(F)cccc23)n[nH]1` [Example 12, 2-(difluoro(5-fluoropyridin-2-yl)methyl)-8-fluoro-N-(3-methyl-1H-pyrazol-5-yl)quinazolin-4-amine], the figures for the Kd at Tyk2, at JAK2 and on JAK3 were no more than 10 nM, no more than 1 nM and no more than 10 nM, respectively. The IC50 in assay [1] is no more than 100 nM.

Take `Cc1cc(Nc2nc(C(F)(F)c3ccc(F)cn3)nc3cc(Cl)ccc23)n[nH]1` [Example 16, 7-chloro-2-(difluoro(5-fluoropyridin-2-yl)methyl)-N-(5-methyl-1H-pyrazol-3-yl)quinazolin-4-amine]: the Kd at Tyk2 is no more than 10 nM; on JAK2 it was no more than 1 nM; at JAK3, 10 to 100 nM. Besides, the half-maximal inhibitory concentration (IC50) in assay [1] was no more than 100 nM.

Take `Cc1cc(Nc2nc(C(F)(F)c3ccc(F)cn3)nc3ccccc23)n[nH]1` [Example 2, 2-(difluoro(5-fluoropyridin-2-yl)methyl)-N-(5-methyl-1H-pyrazol-3-yl)quinazolin-4-amine]: the dissociation constant (Kd) on Tyk2 was no more than 10 nM; on JAK2, no more than 1 nM; on JAK3, no more than 10 nM. The IC50 in assay [1] was no more than 100 nM.

Regarding `Cc1cc(Nc2nc(C(F)(F)c3ccc(F)cn3)nc3c(N)cccc23)n[nH]1` [Example 50, 2-(difluoro(5-fluoropyridin-2-yl)methyl)-N4-(5-methyl-1H-pyrazol-3-yl)quinazoline-4,8-diamine], the Kd was no more than 10 nM at Tyk2, no more than 1 nM at JAK2 and no more than 10 nM on JAK3. The IC50 in assay [1] was no more than 100 nM.

As for `Cc1cc(Nc2nc(C(F)(F)c3ccc(F)cn3)nc3cc(F)ccc23)n[nH]1` [Example 15, 2-(difluoro(5-fluoropyridin-2-yl)methyl)-7-fluoro-N-(5-methyl-1H-pyrazol-3-yl)quinazolin-4-amine], the equilibrium dissociation constant (Kd) on Tyk2 is no more than 10 nM; on JAK2, no more than 1 nM; on JAK3, 10 to 100 nM. In addition, the IC50 in assay [1] is no more than 100 nM.

Take `Cc1cc(Nc2nc(C(F)(F)c3ccc(F)cn3)nc3c(OC(F)(F)F)cccc23)n[nH]1` [Example 34, 2-(difluoro(5-fluoropyridin-2-yl)methyl)-N-(5-methyl-1H-pyrazol-3-yl)-8-(trifluoromethoxy)quinazolin-4-amine]: the values for the Kd on Tyk2, at JAK2 and on JAK3 were no more than 10 nM, 1 to 10 nM and 10 to 100 nM, respectively. Besides, the IC50 in assay [1] fell in the range of 100 to 500 nM.

On to `Cc1cc(Nc2nc(C(F)(F)c3ccc(F)cn3)nc3c(C(=O)NC4COC4)cccc23)n[nH]1` [Example 45, 2-(difluoro(5-fluoropyridin-2-yl)methyl)-4-((5-methyl-1H-pyrazol-3-yl)amino)-N-(oxetan-3-yl)quinazoline-8-carboxamide], for which the dissociation constant (Kd) at Tyk2 is no more than 10 nM; at JAK2 it was no more than 1 nM; at JAK3, no more than 10 nM. The IC50 in assay [1] was no more than 100 nM.

As for `Cc1cc(Nc2nc(C(F)(F)c3ccc(F)cn3)nc3c(C(N)=O)cccc23)n[nH]1` [Example 39, 2-(difluoro(5-fluoropyridin-2-yl)methyl)-4-((5-methyl-1H-pyrazol-3-yl)amino)quinazoline-8-carboxamide], the Kd at Tyk2 is no more than 10 nM; at JAK2, no more than 1 nM; at JAK3, no more than 10 nM. In addition, the 50% inhibitory concentration (IC50) in assay [1] was no more than 100 nM.

In the case of `Cc1cc(Nc2nc(C(F)(F)c3ccc(F)cn3)nc3c(Br)cccc23)n[nH]1` [Example 11, 8-bromo-2-(difluoro(5-fluoropyridin-2-yl)methyl)-N-(5-methyl-1H-pyrazol-3-yl)quinazolin-4-amine], the Kd at Tyk2 was no more than 10 nM; at JAK2, no more than 1 nM; on JAK3, 10 to 100 nM. Further, the half-inhibitory concentration (IC50) in assay [1] was in the range of 100 to 500 nM.

With `Cc1cc(Nc2nc(C(F)(F)c3ccc(F)cn3)nc3c(N4CCOCC4=O)cccc23)n[nH]1` [Example 42, 4-(2-(difluoro(5-fluoropyridin-2-yl)methyl)-4-((5-methyl-1H-pyrazol-3-yl)amino)quinazolin-8-yl)morpholin-3-one], the Kd is no more than 10 nM at Tyk2, no more than 1 nM at JAK2 and no more than 10 nM on JAK3. For the same compound, in assay [1], the IC50 fell in the range of 100 to 500 nM.

Turning to `COC(=O)c1cccc2c(Nc3cc(C)[nH]n3)nc(C(F)(F)c3ccc(F)cn3)nc12` [Example 47, methyl 2-(difluoro(5-fluoropyridin-2-yl)methyl)-4-((5-methyl-1H-pyrazol-3-yl)amino)quinazoline-8-carboxylate], the dissociation constant (Kd) on Tyk2 is no more than 10 nM; at JAK2, no more than 1 nM; on JAK3 it was no more than 10 nM.
